Laboratory results from paper PMC12223310, “Mining the heparinome for cryptic antimicrobial peptides that selectively kill Gram-negative bacteria” (Molecular Systems Biology, 2025).
Converted amounts (≈) assume the structure as drawn. Square brackets hold non-standard residues; d marks the D form. Ends that are not written are not given here. Peptide text beside a SMILES is read from it.

Legend:
Escherichia coli = format: cell-based, Escherichia coli BW25113
Method: (§1) Antimicrobial activities were determined by the microtiter broth dilution method recommended by the National Committee of Laboratory Safety and Standards (NCLSS), adapted for AMPs (Wiegand et al, [2008]). Briefly, overnight bacterial cell cultures were brought to an exponential growth state (OD600 = 0.4) in MH broth and diluted to a final concentration of 5 × 10^5 CFU/mL. In all, 1:2 peptide serial dilutions were prepared in 96-well polypropylene plates (Greiner, Frickenhausen, Germany), in MH medium containing 0.2% (w/v) of bovine serum albumin (BSA) and 0.02% glacial acetic acid. […] The lowest concentration with no colonies was taken as MBC. The results are the average of three independent studies.

Acinetobacter baumannii = format: cell-based, Acinetobacter baumannii ATCC 15308
Method: as §1

[1] = tested on: Pseudomonas sp (Pseudomonas aeruginosa); format: cell-based, Pseudomonas aeruginosa ATCC 15915
Method: as §1

Staphylococcus aureus = format: cell-based, Staphylococcus aureus ATCC 12600
Method: as §1

Listeria monocytogenes = format: cell-based, Listeria monocytogenes ATCC 19112
Method: as §1

horse erythrocytes = format: cell-based
Method: Peptide toxicity was tested on horse erythrocytes (Sandín et al, [2021]). Horse defibrinated blood was washed three times in phosphate buffer saline (PBS) pH 7.2 by centrifugation at 3× 3000 rpm for 10 min, to remove excess hemoglobin in the supernatant and then diluted tenfold in PBS. Next, 50 μL of erythrocytes were added to a 1.5 mL polypropylene tube and incubated with 50 μL of a 1:2 peptide serial dilution in PBS. An erythrocyte disruption (ED) control was prepared by adding 50 μL of 0.1% TritonX-100 in PBS instead of the peptides and an intact erythrocyte (IC) control by adding 50 μL of PBS alone. All samples and controls were incubated for 2 h at 37 °C. Samples were centrifuged at 3000 rpm for 3 min, and the supernatants were transferred to a polystyrene 96-well plate and inspected for ED by reading the absorbance at 540 nm in a Tecan Spark instrument (Tecan, Männedorf, Switzerland). The results are the average of three independent studies. The hemolysis percentage was calculated as: Hemolysis%=Sample−IC/ED−IC×100

in vitro = format: cell-based; conditions: human, MRC-5 cells
Method: (§2) Toxicity in MRC-5 and HepG2 cells was tested by the MTT assay, as described (Bello-Madruga et al, [2023]). Cell lines were maintained in Eagle’s minimum essential medium (MEMα) supplemented with 10% fetal bovine serum (FBS). Cells were cultured in 75-cm^2 flasks and then transferred to polystyrene 96-well plates, at 3 × 10^4 cells per well, and incubated overnight for attachment to the well surface. Then culture media was removed and 1:2 peptide serial dilutions in MEMα were added to each well and later incubated for 4 h. After incubation, peptides were removed and 100 μL of 0.5 mg/mL MTT staining solution in MEMα supplemented with 10% FBS was added to cells and incubated for 1.5 h at 37 °C. Formazan crystals in living cells were detected after disruption with 200 μL dimethyl sulfoxide and then absorbance was measured at 570 nm in a Tecan Spark instrument (Tecan, Männedorf, Switzerland). The results are the average of three independent studies.

[2] = format: in vitro ADME
Method: 500 µL of 1 mM peptide stock in MiliQ water were mixed with 500 µL of human serum (Sigma-Aldrich, St. Louis, MO, USA). The mixture was incubated at 37 °C with shaking, and at various time points aliquots were taken and proteolysis was stopped with cold acetonitrile (80% in MiliQ water). The samples were chilled at 4 °C for 10 min to precipitate serum proteins, and centrifuged at 13,000 rpm at 4 °C for 15 min. The supernatant was collected and analyzed by LC and LC-MS with a –60% linear gradient of solvent B (0.036%TFA in ACN) into A (0.045% TFA in H2O) over 15 min at 1 mL/min flow rate. Unaltered peptide was determined by peak integration, expressed as the percent of the amount at 0 min, and data were fitted to a one-phase exponential decay model using GraphPad Prism 8.01 to estimate half-life time (t1/2). The results are the average of three independent experiments.

Enterococcus faecium = format: cell-based, Enterococcus faecium ATCC 19434
Method: as §1

A. baumannii 3878 = format: cell-based
Method: as §1

A. baumannii 3880 = format: cell-based
Method: as §1

E. coli 1166795 = format: cell-based
Method: as §1

E. coli CFT073 = format: cell-based
Method: as §1

P. aeruginosa 827632 = format: cell-based
Method: as §1

P. aeruginosa 827651 = format: cell-based
Method: as §1

MRC-5 cells = test: in vitro; format: cell-based
Method: as §2

Cytotoxicity, MTT assay = format: cell-based; conditions: human, HepG2 cells, 4 h peptide incubation in MEMα, average of three studies, read-out: LC50 (HepG2 cells)
Method: as §2

## CC(C)C[C@@H](NC(=O)[C@@H](CC(N)=O)NC(=O)[C@H](N)Cc1c[nH]cn1)C(=O)N[C@H](Cc1ccccc1)C(=O)N[C@H](CCCNC(=N)N)C(=O)N[C@H](CCCCN)C(=O)N[C@H](CC(C)C)C(=O)N[C@@H](C(=O)N[C@H](Cc1c[nH]cn1)C(=O)N[C@H](CCCNC(=N)N)C(=O)N[C@H](CC(C)C)C(=O)N[C@H](Cc1ccccc1)C(=O)N[C@H](CCCNC(=N)N)C(=O)N[C@H](CCCNC(=N)N)C(=O)N[C@H](CC(N)=O)C(=O)N[C@H](Cc1ccccc1)C(=O)NCC(=O)N[C@H](Cc1ccc(O)cc1)C(=O)N[C@@H](C(=O)N[C@H](CC(C)C)C(=O)N[C@H](CCCNC(=N)N)C(=O)N[C@H](CO)C(=O)N[C@@H](C(N)=O)C(C)C)[C@H](C)O)[C@H](C)O [dHBP-5] (H-[dH][dN][dL][dF][dR][dK][dL][dT][dH][dR][dL][dF][dR][dR][dN][dF]G[dY][dT][dL][dR][dS][dV]-NH2)
Escherichia coli
  MIC E. coli: 0.1 µM (≈ 0.293 µg/mL)
Acinetobacter baumannii
  MIC A. baumannii: 0.2 µM (≈ 0.586 µg/mL)
[1]
  MIC Pseudomonas sp: 0.2 µM (≈ 0.586 µg/mL)
Staphylococcus aureus
  MIC S. aureus: 0.8 µM (≈ 2.35 µg/mL)
Listeria monocytogenes
  MIC L. monocytogenes: 0.4 µM (≈ 1.17 µg/mL)
Horse erythrocytes
  Hemolysis (250 µM peptide): 29 ± 1
In vitro
  CC50 at 4 h: 30 ± 1 µM
[2]
  half-life in human serum: exceeding 6 hours

## HNLFRKLTHRLFRRNFGYTLRSV-NH2 [HBP-5]
Escherichia coli
  MBC E. coli: 0.4 µM
  MIC E. coli: 0.4 µM
Acinetobacter baumannii
  MBC A. baumannii: 0.2 µM
  MIC A. baumannii: 0.2 µM
[1]
  MBC Pseudomonas sp: 0.8 µM
  MIC Pseudomonas sp: 0.8 µM
Staphylococcus aureus
  MBC S. aureus: 6.3 µM
  MIC S. aureus: 6.3 µM
Enterococcus faecium
  MBC E. faecium: 6.3 µM
  MIC E. faecium: 3.1 µM
Listeria monocytogenes
  MBC L. monocytogenes: 3.1 µM
  MIC L. monocytogenes: 1.6 µM
A. baumannii 3878
  MBC A. baumannii 3878: 0.2 µM
  MIC A. baumannii 3878: 0.2 µM
A. baumannii 3880
  MBC A. baumannii 3880: 0.4 µM
  MIC A. baumannii 3880: 0.4 µM
E. coli 1166795
  MBC E. coli 1166795: < 0.1 µM
  MIC E. coli 1166795: < 0.1 µM
E. coli CFT073
  MBC E. coli CFT073: 0.8 µM
  MIC E. coli CFT073: 0.4 µM
P. aeruginosa 827632
  MBC P. aeruginosa 827632: 1.6 µM
  MIC P. aeruginosa 827632: 1.6 µM
P. aeruginosa 827651
  MBC P. aeruginosa 827651: 1.6 µM
  MIC P. aeruginosa 827651: 0.8 µM
Horse erythrocytes
  Hemolysis (250 µM peptide): 23 ± 1
In vitro
  CC50 at 4 h: 69 ± 2 µM
MRC-5 cells
  LC50 (MRC-5 cells, µM): 69 µM
Cytotoxicity, MTT assay
  CC50 at 4 h: 80 µM
